Source: PubChem BioAssay AID330 (DTP/NCI, 2004)
Several values for one entry are separate records, joined by “and”; a condition that tells them apart may be missing. Equal values may be shown once. Toxic doses and inconclusive results are not listed. Rule for the calls: active = survival T/C of 150% or more; inactive = T/C below 125% in these data.

Tested on: P388 leukemia ip, CD2F1 mice, survival T/C
Assay: NCI In Vivo Anticancer Drug Screen. Data for tumor model P388 Leukemia (intraperitoneal) in CD2F1 (CDF1) mice
Conditions: endpoint: median survival time, higher = longer survival
Summary of the method: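 Mice carrying the transplanted tumor received test compound or vehicle. Survival was recorded in each group, and the value is the treated-group measurement divided by that of the vehicle-treated control group.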

[1] = dose: 6.25 mg/kg/injection, schedule: Q01DX005 (ip), vehicle: Klucel (hydroxypropylcellulose) (HPC)
[2] = dose: 12.5 mg/kg/injection, schedule: Q01DX005 (ip), vehicle: Klucel (hydroxypropylcellulose) (HPC)
[3] = dose: 50.0 mg/kg/injection, schedule: Q01DX005 (ip), vehicle: Klucel (hydroxypropylcellulose) (HPC)
[4] = dose: 100.0 mg/kg/injection, schedule: Q01DX005 (ip), vehicle: Klucel (hydroxypropylcellulose) (HPC)
[5] = dose: 200.0 mg/kg/injection, schedule: Q01DX005 (ip), vehicle: Klucel (hydroxypropylcellulose) (HPC)
[6] = dose: 60.0 mg/kg/injection, schedule: Q01DX005 (ip), vehicle: saline with Tween-80
[7] = dose: 120.0 mg/kg/injection, schedule: Q01DX005 (ip), vehicle: saline with Tween-80
[8] = dose: 240.0 mg/kg/injection, schedule: Q01DX005 (ip), vehicle: saline with Tween-80
[9] = dose: 50.0 mg/kg/injection, schedule: Q01DX005 (ip), vehicle: saline with Tween-80
[10] = dose: 100.0 mg/kg/injection, schedule: Q01DX005 (ip), vehicle: saline with Tween-80
[11] = dose: 200.0 mg/kg/injection, schedule: Q01DX005 (ip), vehicle: saline with Tween-80
[12] = dose: 100.0 mg/kg/injection, schedule: Q01DX009 (ip), vehicle: saline with Tween-80
[13] = dose: 200.0 mg/kg/injection, schedule: Q01DX009 (ip), vehicle: saline with Tween-80
[14] = dose: 25.0 mg/kg/injection, schedule: Q01DX009 (ip), vehicle: saline with Tween-80
[15] = dose: 50.0 mg/kg/injection, schedule: Q01DX009 (ip), vehicle: saline with Tween-80
[16] = dose: 25.0 mg/kg/injection, schedule: Q01DX001 (ip), vehicle: Klucel (hydroxypropylcellulose) (HPC)
[17] = dose: 100.0 mg/kg/injection, schedule: Q01DX001 (ip), vehicle: Klucel (hydroxypropylcellulose) (HPC)
[18] = dose: 25.0 mg/kg/injection, schedule: Q01DX005 (ip), vehicle: Klucel (hydroxypropylcellulose) (HPC)

Measured: T/C

Cc1[nH]c2ccccc2c1CC[n+]1cccc(C#N)c1
inactive: dose: 3.12 mg/kg/injection, schedule: Q01DX005 (ip), vehicle: Klucel (hydroxypropylcellulose) (HPC) 108 % of control | [1] 100 % of control | [2] 103 % of control

Nc1ccc(S(=O)(=O)c2ccc(Nc3ccnc4cc(Cl)ccc34)cc2)cc1
inactive: [3] 100 % of control | [4] 92 % of control | [5] 90 % of control

COC(=O)C(Cc1cnc2nc(N)nc(N)c2n1)C(=O)OC
inactive: dose: 25.0 mg/kg/injection, schedule: Q01DX009 (ip), vehicle: distilled water + Tween-80 104 % of control | dose: 50.0 mg/kg/injection, schedule: Q01DX009 (ip), vehicle: distilled water + Tween-80 104 % of control | dose: 100.0 mg/kg/injection, schedule: Q01DX009 (ip), vehicle: distilled water + Tween-80 122 % of control

CN=C(N)N/N=C/c1ccc2c(c1)Cc1ccccc1-2
inactive: dose: 6.25 mg/kg/injection, schedule: Q04DX002 (ip), vehicle: saline with Tween-80 106 % of control and 122 % of control | dose: 12.5 mg/kg/injection, schedule: Q04DX002 (ip), vehicle: saline with Tween-80 109 % of control | dose: 25.0 mg/kg/injection, schedule: Q04DX002 (ip), vehicle: saline with Tween-80 107 % of control | dose: 50.0 mg/kg/injection, schedule: Q04DX002 (ip), vehicle: saline with Tween-80 119 % of control and 124 % of control | dose: 100.0 mg/kg/injection, schedule: Q04DX002 (ip), vehicle: saline with Tween-80 118 % of control

CC(C)(C)NC(=O)c1cccc(C(N)=O)n1
inactive: [6] 94 % of control | [7] 93 % of control | [8] 97 % of control

CC(C)CN=C1NS(=O)(=O)c2ccccc21
inactive: [9] 100 % of control | [10] 101 % of control | [11] 101 % of control

Cc1csc(N2C(=O)c3cccc4cccc(c34)C2=O)n1
inactive: [6] 110 % of control | [7] 96 % of control | [8] 96 % of control

CC1CCOn2c1nc1ccccc1c2=O (stereo not drawn)
inactive: dose: 50.0 mg/kg/injection, schedule: Q01DX009 (ip), vehicle: Klucel (hydroxypropylcellulose) (HPC) 97 % of control | dose: 100.0 mg/kg/injection, schedule: Q01DX009 (ip), vehicle: Klucel (hydroxypropylcellulose) (HPC) 102 % of control | dose: 200.0 mg/kg/injection, schedule: Q01DX009 (ip), vehicle: Klucel (hydroxypropylcellulose) (HPC) 113 % of control

CC(Cc1ccc2c(c1)OCO2)NN (stereo not drawn)
inactive: dose: 3.12 mg/kg/injection, schedule: Q01DX005 (ip), vehicle: saline 102 % of control | dose: 6.25 mg/kg/injection, schedule: Q01DX005 (ip), vehicle: saline 96 % of control | dose: 12.5 mg/kg/injection, schedule: Q01DX005 (ip), vehicle: saline 98 % of control

CCOC(=O)C(C(=O)OCC)C1CCS(=O)(=O)C1 (stereo not drawn)
inactive: [12] 109 % of control | [13] 104 % of control | dose: 400.0 mg/kg/injection, schedule: Q01DX009 (ip), vehicle: saline with Tween-80 104 % of control

CC1(C)Cc2c([nH]c3ccccc3c2=O)-c2ccccc21
inactive: [3] 96 % of control | [4] 100 % of control | [5] 103 % of control

COc1ccc(C2C3CCN2CC3)cc1 (stereo not drawn)
inactive: dose: 6.25 mg/kg/injection, schedule: Q01DX009 (ip), vehicle: saline 111 % of control | dose: 12.5 mg/kg/injection, schedule: Q01DX009 (ip), vehicle: saline 109 % of control

CC=C1CN(C)C2Cc3c([nH]c4ccccc34)C(=O)CC1C2C(=O)OC (stereo not drawn)
inactive: dose: 7.5 mg/kg/injection, schedule: Q01DX009 (ip), vehicle: saline + alcohol 107 % of control | dose: 15.0 mg/kg/injection, schedule: Q01DX009 (ip), vehicle: saline + alcohol 116 % of control | dose: 30.0 mg/kg/injection, schedule: Q01DX009 (ip), vehicle: saline + alcohol 106 % of control

O=c1nc(N2CCCC2)oc2cc3ccccc3cc12
inactive: dose: 60.0 mg/kg/injection, schedule: Q01DX005 (ip), vehicle: Klucel (hydroxypropylcellulose) (HPC) 95 % of control | dose: 120.0 mg/kg/injection, schedule: Q01DX005 (ip), vehicle: Klucel (hydroxypropylcellulose) (HPC) 98 % of control | dose: 240.0 mg/kg/injection, schedule: Q01DX005 (ip), vehicle: Klucel (hydroxypropylcellulose) (HPC) 95 % of control

CCOC(=O)NCCCCC(N)C(=O)O (stereo not drawn)
inactive: dose: 50.0 mg/kg/injection, schedule: Q01DX009 (ip), vehicle: saline 97 % of control | dose: 100.0 mg/kg/injection, schedule: Q01DX009 (ip), vehicle: saline 102 % of control | dose: 200.0 mg/kg/injection, schedule: Q01DX009 (ip), vehicle: saline 102 % of control

Cc1ccc(S(=O)(=O)NC(=O)NC(C)Cc2ccccc2)cc1 (stereo not drawn)
inactive: dose: 12.5 mg/kg/injection, schedule: Q01DX009 (ip), vehicle: saline with Tween-80 102 % of control | [14] 100 % of control | [15] 101 % of control and 105 % of control | [13] 98 % of control

CCn1c2c(c3ccccc31)CCSC2(C)CCN(C)C (stereo not drawn)
inactive: [14] 105 % of control | [15] 96 % of control | [12] 117 % of control

Cn1c2nc(-[n+]3ccccc3)nc-2c([O-])n(C)c1=O
inactive: dose: 100.0 mg/kg/injection, schedule: Q04DX003 (ip), vehicle: saline 94 % of control | dose: 200.0 mg/kg/injection, schedule: Q04DX003 (ip), vehicle: saline 100 % of control | dose: 400.0 mg/kg/injection, schedule: Q04DX003 (ip), vehicle: saline 100 % of control

N#CC(c1ccc2c(c1)OCO2)N1CCCC1 (stereo not drawn)
inactive: dose: 12.5 mg/kg/injection, schedule: Q01DX001 (ip), vehicle: Klucel (hydroxypropylcellulose) (HPC) 108 % of control | [16] 108 % of control | [17] 100 % of control | dose: 400.0 mg/kg/injection, schedule: Q01DX001 (ip), vehicle: Klucel (hydroxypropylcellulose) (HPC) 99 % of control

Cc1cccc(/C=N\N=C\c2cccc(C)n2)n1
inactive: [12] 100 % of control | [13] 100 % of control

COc1ccc(CCN2C(=O)CCC3=C2CCCC3=O)cc1OC
inactive: [18] 102 % of control | [3] 100 % of control | [4] 102 % of control | [5] 100 % of control

COCC(CC(=O)O)C(C(=O)O)C(=O)O (stereo not drawn)
inactive: dose: 12.5 mg/kg/injection, schedule: Q01DX009 (ip), vehicle: water 100 % of control | dose: 25.0 mg/kg/injection, schedule: Q01DX009 (ip), vehicle: water 106 % of control | dose: 50.0 mg/kg/injection, schedule: Q01DX009 (ip), vehicle: water 106 % of control | dose: 100.0 mg/kg/injection, schedule: Q01DX009 (ip), vehicle: water 93 % of control | dose: 200.0 mg/kg/injection, schedule: Q01DX009 (ip), vehicle: water 92 % of control

Cc1ccc2nc(NC(=O)OCc3ccccc3)sc2c1
inactive: dose: 6.25 mg/kg/injection, schedule: Q01DX009 (ip), vehicle: Klucel (hydroxypropylcellulose) (HPC) 97 % of control | dose: 12.5 mg/kg/injection, schedule: Q01DX009 (ip), vehicle: Klucel (hydroxypropylcellulose) (HPC) 101 % of control

CC1NC(=O)N(C(C)(C)C)C1=O (stereo not drawn)
inactive: [9] 111 % of control | dose: 50.0 mg/kg/injection, schedule: Q01DX005 (ip), vehicle: saline 101 % of control | [10] 111 % of control | dose: 100.0 mg/kg/injection, schedule: Q01DX005 (ip), vehicle: saline 100 % of control | [11] 120 % of control | dose: 200.0 mg/kg/injection, schedule: Q01DX005 (ip), vehicle: saline 102 % of control and 107 % of control

O=C(Nc1cc(-c2ccccc2)[nH]n1)c1ccccc1F
inactive: dose: 30.0 mg/kg/injection, schedule: Q01DX005 (ip), vehicle: saline with Tween-80 97 % of control | [6] 97 % of control | [7] 97 % of control | [8] 90 % of control

CCN(CC)CCOC(=O)c1c[nH]c2ccccc12
inactive: [1] 100 % of control | [2] 105 % of control | [18] 105 % of control | [3] 98 % of control and 95 % of control | [4] 100 % of control

Cc1nnsc1-c1n[nH]c(=S)n1N
inactive: [16] 106 % of control | dose: 50.0 mg/kg/injection, schedule: Q01DX001 (ip), vehicle: Klucel (hydroxypropylcellulose) (HPC) 107 % of control | [17] 101 % of control

OC(C[n+]1ccccc1)c1ccc2c(c1)OCO2 (stereo not drawn)
inactive: [9] 106 % of control | [10] 97 % of control
